Results as given in patent US20210275480A1, “COMPOSITIONS AND METHODS FOR THE REDUCTION OR TREATMENT OF FIBROSIS” (AXCELLA HEALTH INC., priority 2018, published 2021).

Legend:
[1] = test system: LX-2 hepatic stellate cells; test: TGFβ1-induced fibrogenic gene expression (Col1a1, Acta2, Timp2) in LX-2 hepatic stellate cells, qPCR; assay type: cell-based, human
Source text: Hepatic stellate cells in a healthy liver are in the space of Disse, between the hepatocytes and liver sinusoidal endothelial cells. In response to liver injury hepatic stellate cells become activated, proliferative and contractile, increase production of aSMA, secretion of type I and III collagens and specific MMP and TIMP proteins. LX-2 cells were selected as a model of activated hepatic stellate cells and used to test whether specific amino acid compositions would reduce fibrogenic gene expression induced with TGFβ1.
LX-2 hepatic stellate cells (Millipore) were seeded on day 0 at 1.67E4 cells per well in collagen I coated 96-well microplates (ThermoFisher) in Dulbecco's Modified Eagle Medium (DMEM, Corning) supplemented with 2% heat inactivated fetal bovine serum (HI-FBS, HyClone) and 0.2% Primocin (InVivoGen) and incubated overnight at 37° C., 5% CO2. […] Combinations containing N-acetylcysteine were dosed with 10 mM. Cells were pretreated for 6 hours at 37° C., 5% CO2. After pretreatment, TGFβ1 (R&D Systems) or vehicle was spiked into each well for a final concentration of 5 ng/mL and cells were incubated under this stimulus for a further 12 hours at 37° C., 5% CO2.
After 12 hour incubation, RNA extraction and quantitative PCR was conducted on lysates to determine collagen-1a1 expression normalized to β-actin housekeeping expression using the ΔΔCt method using TaqMan primer probes (Integrated DNA Technologies: Col1A1, Hs.PT.58.15517795; Actb, Hs.PT.39a.22214847; Acta2, Hs.PT.56a.24853961; Timp2, Hs.PT.58.14780594).

[2] = test system: Col1a1 gene expression, primary human hepatic stellate cells; test: Col1a1 gene expression in TGFβ1-stimulated primary human hepatic stellate cells; assay type: cell-based; conditions: primary human hepatic stellate cells, three healthy donors, TGFβ1 3 ng/mL 24 h; summary in words
Description: (§1) Primary human hepatic stellate cells were obtained from Samsara Sciences. Cells were grown in Complete HSC Medium to ˜80% confluence in T75 or T150 flasks below passage 10 were seeded into sterile, collagen I coated, 96-well optical plastic microplates (ThermoScientific, 152036) and incubated overnight at 37° C., 5% CO2 in a humidified incubator in DMEM with 2% Fetal Bovine Serum and 1% Antibiotic-Antimycotic. After the overnight incubation, plates are washed and pretreated with medium±single amino acid dropout, 1×HMDB DMEM±supplemental amino acid dose for 10.5 hours. After 10.5 hour pretreatment, the same pretreatment medium supplemented with 3 ng/mL TGFβ1, was applied and incubated for 24 hours at 37° C., 5% CO2. After 24 hour stimulus, supernatant was removed, RNA was extracted and gene expression was evaluated using the ΔΔCq method within each single amino acid dropout and supplementation by normalizing to its own 1×HMDB concentration.

[3] = test system: procollagen Iα1 secretion, primary human hepatic stellate cells; test: Procollagen Iα1 secretion by TGFβ1-stimulated primary human hepatic stellate cells, ELISA; assay type: cell-based; conditions: primary human hepatic stellate cells, three healthy donors, TGFβ1 3 ng/mL 24 h; summary in words
Description: as §1
Human Procollagen 1α1 was measured from the supernatant by ELISA (Human ProCollagen I alpha 1 DuoSet ELISA, R&D Systems) at 1/100 dilution in 1× Reagent Diluent (Reagent Ancillary Kit 2, R&D Systems).
Tables 32, 33, 33-1, 33-2, 33-3, and 33-4 show the fold change in procollagen Iα1 in primary human hepatic stellate cells from three different healthy donors normalized to their respective baseline amino acid conditions. Statistical significance calculated by one-way

[4] = test system: Hsp47 gene expression, primary human hepatic stellate cells; test: Hsp47 gene expression in TGFβ1-stimulated primary human hepatic stellate cells; assay type: cell-based; conditions: primary human hepatic stellate cells, three healthy donors, TGFβ1 3 ng/mL 24 h; summary in words
Description: Primary human hepatic stellate cells were obtained from Samsara Sciences based on the following criteria for selecting donors: adult age (between 18 and 50 years), normal BMI (>18.5 and <25), and absence of confounding liver disease. Cells grown in Complete HSC Medium to ˜80% confluence in T75 or T150 flasks below passage 10 were seeded into sterile, collagen I coated, 96-well optical plastic microplates (ThermoScientific, 152036) at 6000 cells per well (1250 cells per cm2) and incubated overnight at 37° C., 5% CO2 in a humidified incubator in DMEM with 2% Fetal Bovine Serum and 1% Antibiotic-Antimycotic.
After the overnight incubation, plates were removed from the incubator and the medium was gently pipetted off and washed twice with 150 μL per well DPBS. The DPBS was removed and the pretreatment medium (±single amino acid dropout, 1×HMDB DMEM+1% Antibiotic-Antimycotic, 10 mM HEPES, ±supplemental amino acid dose; see experiment for medium composition) was applied to the cells at 150 μL per well. Plates were returned to the incubator for 10.5 hours.
After 10.5 hour pretreatment, the medium was removed from the cells, and the same pretreatment medium, now supplemented with 3 ng/mL TGFβ1, was applied. Each plate contained 3 ng/mL TGFβ1 in 1× human plasma amino acid (HMDB or PAA) concentration medium, 0 ng/mL in 1×HMDB, and 3 ng/mL TGFβ1+20 μM Silybin in 1×HMDB to serve as controls. Plates were then incubated for 24 hours at 37° C., 5% CO2.
After 24 hour stimulus, supernatant was removed and frozen at −80° C. in two separate aliquots. The cells were then washed with 125 μL per well Buffer FCW (FastLane Cell Multiplex NR Kit, Qiagen, 216713). The wash buffer was immediately removed and 50 μL of Cell Processing Mix (containing genomic DNA Wipeout buffer) was applied to lyse cells, incubating for 10 minutes at room temperature. RNA lysate was then transferred to 96-well qPCR plates, sealed, and gDNA was digested on thermal cycler at 75° C. for 5 minutes. RNA lysate was frozen at −80° C.
Each 20 μL one-step RT-qPCR reaction contained 4 μL of RNA lysate. Gene expression of Hsp47, and Gapdh were multiplexed using the HEX, and FAM fluorescent channels, respectively, with commercially available primer-probe mixes (the Human Hsp47 Primer-Probe Set, HEX; and the Human Gapdh Primer-Probe Set, FAM from IDT). Gene expression was evaluated using the ΔΔCq method within each single amino acid dropout and supplementation by normalizing to its own 1×HMDB concentration.

[5] = LX-2 cells with TGFβ1, individual amino acid at 1X HMDB derived concentration
[6] = LX-2 cells with TGFβ1, individual amino acid at 50X HMDB derived concentration
[7] = LX-2 cells, TGFβ1 5 ng/mL 12 h, combinations at 40× HMDB, N-acetylcysteine 10 mM, normalized to β-actin

N=C(N)NCCC[C@H](N)C(=O)O [ARG, arginine]
Col1a1 gene expression, mean [1, 5]: 1.620 | Col1a1 gene expression, mean [1, 6]: 1.970 | Col1a1 gene expression [2]: did not significantly change | procollagen Iα1 secretion [3]: significantly increased procollagen Iα1 secretion in two of three donors | Hsp47 gene expression [4]: significantly increased Hsp47 gene expression in two of three donors

CC(=O)N[C@@H](CS)C(=O)O [NAC, N-acetylcysteine]
Acta2 gene expression, mean [1, 7]: 0.647 | Timp2 gene expression, mean [1, 7]: 1.076 | Col1a1 gene expression, mean ([1]; LX-2 cells, TGFβ1 5 ng/mL 12 h, combinations at 40× HMDB, N-acetylcysteine 10 mM, normalized to β-actin (ΔΔCt)): 1.659 | Col1a1 gene expression, mean ([1]; LX-2 cells, TGFβ1 5 ng/mL 12 h, combinations at 40× HMDB, N-acetylcysteine 10 mM, normalized to β-actin (ΔΔCt), listed as N-acetylcysteine): reduced | Timp2 gene expression, mean ([1]; LX-2 cells, TGFβ1 5 ng/mL 12 h, combinations at 40× HMDB, N-acetylcysteine 10 mM, normalized to β-actin, listed as N-acetylcysteine): reduced | Col1a1 gene expression [2]: significantly reduced Col1a1 gene expression in all three donors | procollagen Iα1 secretion [3]: significantly decrease procollagen Iα1 secretion in two of the three donors

CC(C)C[C@H](N)C(=O)O [LEU, leucine]
Col1a1 gene expression, mean [1, 5]: 1.901 | Col1a1 gene expression, mean [1, 6]: 2.372 | Hsp47 gene expression [4]: did not significantly change

NC(=O)CC[C@H](N)C(=O)O [GLN, glutamine]
Col1a1 gene expression, mean [1, 5]: 2.340 | Col1a1 gene expression, mean [1, 6]: 2.194 | Hsp47 gene expression [4]: significantly increased Hsp47 gene expression in one of three donors

N[C@@H](CS)C(=O)O [CYS, cysteine]
Col1a1 gene expression, mean [1, 5]: 2.491 | Col1a1 gene expression, mean [1, 6]: 1.695 | Col1a1 gene expression, mean ([1]; LX-2 cells with TGFβ1, individual amino acid at 50X HMDB derived concentration, listed as cysteine): significant decrease
